Test results reported in patent US20250353891A1 (MEDIMMUNE LIMITED, priority 2022, published 2025).
Starred links: 1 amine or outer side, 2 acyl side, 3 side chain; linkers in the order of their positions; H or OH if unused. Non-standard residues stand in square brackets, D forms with d. Residues, ends and D or L forms follow the SMILES beside them. Groups on a side chain read outwards from the residue. *: point of attachment. C18 diacid = O=C(O)CCCCCCCCCCCCCCCCC(=O)*; γGlu = O=C(O)[C@H](CCC(=O)[*:2])N[*:1]; Stearoyl = CCCCCCCCCCCCCCCCCC(=O)*; Palmitoyl = CCCCCCCCCCCCCCCC(=O)*; αMeF = C[C@](N)(Cc1ccccc1)C(=O)O; Myristoyl = CCCCCCCCCCCCCC(=O)*; αMeS = C[C@](N)(CO)C(=O)O; PEG2 = NCCOCCOCCC(=O)O; AEEA = NCCOCCOCC(=O)O; Aib = CC(C)(N)C(=O)O

Legend:
[1] = biological target: human GLP-1 receptor (hGLP-1R) (Homo sapiens, UniProt P43220); experiment: cAMP production (HTRF) in CHO cells expressing hGLP-1R; assay type: cell-based; design: expressed in transfected cells; settings: for % Relative Potency Ratio: Table 6, % GLP-1R activity relative to GLP-1 / % GlucR activity relative to glucagon; for EC50: Table 6, peptides modified at position 17, cAMP in CHO hGLP-1R cells, geometric mean, read-out: hGLP-1R EC50
Procedure, shortened: (§1)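 Read-out: HTRF cAMP (anti-cAMP cryptate donor, cAMP-d2 acceptor in conjugate/lysis buffer), converted to % Delta F and fitted by 4-parameter logistic for EC50. Cell densities were 1×10^5 cells/mL (hGLP-1R) or 2×10^5 cells/mL (hGCGR). Stimulation lasted 30 min at room temperature.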

[2] = biological target: human glucagon receptor (hGCGR) (Homo sapiens, UniProt P47871); experiment: cAMP production (HTRF) in CHO cells expressing hGCGR; assay type: cell-based; design: expressed in transfected cells; settings: Table 6, peptides modified at position 17; cAMP in CHO hGCGR cells; geometric mean; read-out: hGluc-R EC50
Procedure, shortened: as §1

Sequence of human glucagon receptor (hGCGR) (P47871 26-477): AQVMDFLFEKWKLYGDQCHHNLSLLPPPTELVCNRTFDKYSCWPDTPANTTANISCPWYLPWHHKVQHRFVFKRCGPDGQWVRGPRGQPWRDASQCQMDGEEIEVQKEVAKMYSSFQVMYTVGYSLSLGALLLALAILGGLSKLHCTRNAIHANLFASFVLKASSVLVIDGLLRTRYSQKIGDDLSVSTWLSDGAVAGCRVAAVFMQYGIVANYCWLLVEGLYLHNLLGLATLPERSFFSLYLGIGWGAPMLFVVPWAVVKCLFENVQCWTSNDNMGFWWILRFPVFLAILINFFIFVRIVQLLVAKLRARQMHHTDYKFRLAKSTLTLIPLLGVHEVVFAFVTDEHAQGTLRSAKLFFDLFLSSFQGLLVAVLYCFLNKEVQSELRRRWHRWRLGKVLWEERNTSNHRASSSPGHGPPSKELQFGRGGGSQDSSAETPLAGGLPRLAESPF
Sequence of human GLP-1 receptor (hGLP-1R) (P43220 24-463): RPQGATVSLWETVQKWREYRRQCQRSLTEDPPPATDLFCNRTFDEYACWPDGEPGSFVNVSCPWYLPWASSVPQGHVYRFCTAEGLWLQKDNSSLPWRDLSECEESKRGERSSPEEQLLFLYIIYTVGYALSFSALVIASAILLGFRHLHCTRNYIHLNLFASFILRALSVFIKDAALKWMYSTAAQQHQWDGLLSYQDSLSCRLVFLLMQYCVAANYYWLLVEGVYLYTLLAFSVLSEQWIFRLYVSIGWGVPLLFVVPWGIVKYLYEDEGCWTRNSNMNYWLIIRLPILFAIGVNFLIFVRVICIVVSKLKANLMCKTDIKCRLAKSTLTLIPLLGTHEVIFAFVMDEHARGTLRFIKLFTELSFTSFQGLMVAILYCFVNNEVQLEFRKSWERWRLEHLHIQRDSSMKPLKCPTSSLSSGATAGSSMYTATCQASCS

Row | Structure (SMILES) | % Relative Potency Ratio [1] | EC50 [2] | EC50 [1]
1 | CCCCCCCCCCCCCC(=O)N[C@@H](CCC(=O)N[C@@H](CCC(=O)NCCOCCOCCC(=O)NCCOCCOCCC(=O)NCCCC[C@H](NC(=O)[C@H](CO)NC(=O)[C@H](CC(=O)O)NC(=O)[C@H](CC(C)C)NC(=O)[C@@H](NC(=O)[C@H](CCCCN)NC(=O)[C@H](CO)NC(=O)[C@@H](NC(=O)[C@H](CC(=O)O)NC(=O)[C@H](CO)NC(=O)[C@@H](NC(=O)[C@](C)(Cc1ccccc1)NC(=O)[C@H](CO)NC(=O)CNC(=O)[C@H](CCC(N)=O)NC(=O)[C@](C)(CO)NC(=O)[C@@H](N)Cc1c[nH]cn1)[C@@H](C)O)C(C)C)[C@@H](C)CC)C(=O)N[C@@H](C)C(=O)N[C@@H](C)C(=O)N[C@@H](CCC(N)=O)C(=O)N[C@@H](CC(=O)O)C(=O)N[C@@](C)(Cc1ccccc1)C(=O)N[C@H](C(=O)N[C@@H](CCC(N)=O)C(=O)NC(C)(C)C(=O)N[C@H](C(=O)N[C@H](C(=O)N[C@@H](CC(N)=O)C(=O)N[C@H](C(N)=O)[C@@H](C)O)[C@@H](C)CC)[C@@H](C)CC)C(C)C)C(=O)O)C(=O)O [Peptide 132] (H-H[αMeS]QGS[αMeF]TSDVSKILDSK([PEG2-PEG2-γGlu-γGlu-Myristoyl])AAQD[αMeF]VQ[Aib]IINT-NH2; N-terminus assumed) | 71.5 | 0.0343 nM | –
2 | CCCCCCCCCCCCCCCCCC(=O)N[C@@H](CCC(=O)NCCOCCOCCC(=O)NCCOCCOCCC(=O)NCCCC[C@H](NC(=O)[C@H](CO)NC(=O)[C@H](CC(=O)O)NC(=O)[C@H](CC(C)C)NC(=O)[C@@H](NC(=O)[C@H](CCCCN)NC(=O)[C@H](CO)NC(=O)[C@@H](NC(=O)[C@H](CC(=O)O)NC(=O)[C@H](CO)NC(=O)[C@@H](NC(=O)[C@](C)(Cc1ccccc1)NC(=O)[C@H](CO)NC(=O)CNC(=O)[C@H](CCC(N)=O)NC(=O)[C@](C)(CO)NC(=O)[C@@H](N)Cc1c[nH]cn1)[C@@H](C)O)C(C)C)[C@@H](C)CC)C(=O)N[C@@H](C)C(=O)N[C@@H](C)C(=O)N[C@@H](CCC(N)=O)C(=O)N[C@@H](CC(=O)O)C(=O)N[C@@](C)(Cc1ccccc1)C(=O)N[C@H](C(=O)N[C@@H](CCC(N)=O)C(=O)NC(C)(C)C(=O)N[C@H](C(=O)N[C@H](C(=O)N[C@@H](CC(N)=O)C(=O)N[C@H](C(N)=O)[C@@H](C)O)[C@@H](C)CC)[C@@H](C)CC)C(C)C)C(=O)O [Peptide 133] (H-H[αMeS]QGS[αMeF]TSDVSKILDSK([PEG2-PEG2-γGlu-Stearoyl])AAQD[αMeF]VQ[Aib]IINT-NH2; N-terminus assumed) | 55.9 | 0.03 nM | 0.00106 nM
3 | CC(C)C[C@H](NC(=O)[C@H](CC(C)C)NC(=O)[C@H](Cc1c[nH]c2ccccc12)NC(=O)[C@H](CCCNC(=N)N)NC(=O)[C@@H](NC(=O)[C@H](Cc1ccccc1)NC(=O)[C@H](CC(=O)O)NC(=O)[C@H](CCC(N)=O)NC(=O)[C@H](C)NC(=O)[C@H](CCCNC(=N)N)NC(=O)[C@H](CCCCNC(=O)CC[C@H](NC(=O)CC[C@H](NC(=O)COCCOCCNC(=O)COCCOCCNC(=O)CC[C@H](NC(=O)CC[C@H](NC(=O)CCCCCCCCCCCCCCCCC(=O)O)C(=O)O)C(=O)O)C(=O)O)C(=O)O)NC(=O)[C@H](CO)NC(=O)[C@H](CC(=O)O)NC(=O)[C@H](CC(C)C)NC(=O)[C@](C)(Cc1ccccc1)NC(=O)[C@H](CCCCN)NC(=O)[C@H](CO)NC(=O)[C@@H](NC(=O)[C@H](CC(=O)O)NC(=O)[C@H](CO)NC(=O)[C@@H](NC(=O)[C@H](Cc1ccccc1)NC(=O)[C@@H](NC(=O)CNC(=O)[C@H](CCC(N)=O)NC(=O)C(C)(C)NC(=O)[C@@H](N)Cc1c[nH]cn1)[C@@H](C)O)[C@@H](C)O)C(C)C)C(C)C)C(=O)N[C@@H](CCC(=O)O)C(=O)NCC(=O)NC(C)(C)C(=O)O [Peptide 137] (H-H[Aib]QGTFTSDVSK[αMeF]LDSK([γGlu-γGlu-AEEA-AEEA-γGlu-γGlu-C18 diacid])RAQDFVRWLLEG[Aib]-OH; N-terminus assumed) | 3.7 | 0.268 nM | 0.143 nM

Compounds with a lower EC50 [2], results first:

Row | % Relative Potency Ratio [1] | EC50 [2] | EC50 [1] | Structure (SMILES)
4 | 50.1 | 0.015 nM | – | CCCCCCCCCCCCCCCC(=O)N[C@@H](CCC(=O)NCCOCCOCCC(=O)NCCOCCOCCC(=O)NCCCC[C@H](NC(=O)[C@H](CO)NC(=O)[C@H](CC(=O)O)NC(=O)[C@H](CC(C)C)NC(=O)[C@@H](NC(=O)[C@H](CCCCN)NC(=O)[C@H](CO)NC(=O)[C@@H](NC(=O)[C@H](CC(=O)O)NC(=O)[C@H](CO)NC(=O)[C@@H](NC(=O)[C@](C)(Cc1ccccc1)NC(=O)[C@H](CO)NC(=O)CNC(=O)[C@H](CCC(N)=O)NC(=O)[C@](C)(CO)NC(=O)[C@@H](N)Cc1c[nH]cn1)[C@@H](C)O)C(C)C)[C@@H](C)CC)C(=O)N[C@@H](C)C(=O)N[C@@H](C)C(=O)N[C@@H](CCC(N)=O)C(=O)N[C@@H](CC(=O)O)C(=O)N[C@@](C)(Cc1ccccc1)C(=O)N[C@H](C(=O)N[C@@H](CCC(N)=O)C(=O)NC(C)(C)C(=O)N[C@H](C(=O)N[C@H](C(=O)N[C@@H](CC(N)=O)C(=O)N[C@H](C(N)=O)[C@@H](C)O)[C@@H](C)CC)[C@@H](C)CC)C(C)C)C(=O)O [Peptide 134] (H-H[αMeS]QGS[αMeF]TSDVSKILDSK([PEG2-PEG2-γGlu-Palmitoyl])AAQD[αMeF]VQ[Aib]IINT-NH2; N-terminus assumed)
5 | 72.8 | 0.015 nM | – | CCCCCCCCCCCCCC(=O)N[C@@H](CCC(=O)NCCOCCOCCC(=O)NCCOCCOCCC(=O)NCCCC[C@H](NC(=O)[C@H](CO)NC(=O)[C@H](CC(=O)O)NC(=O)[C@H](CC(C)C)NC(=O)[C@@H](NC(=O)[C@H](CCCCN)NC(=O)[C@H](CO)NC(=O)[C@@H](NC(=O)[C@H](CC(=O)O)NC(=O)[C@H](CO)NC(=O)[C@@H](NC(=O)[C@](C)(Cc1ccccc1)NC(=O)[C@H](CO)NC(=O)CNC(=O)[C@H](CCC(N)=O)NC(=O)[C@](C)(CO)NC(=O)[C@@H](N)Cc1c[nH]cn1)[C@@H](C)O)C(C)C)[C@@H](C)CC)C(=O)N[C@@H](C)C(=O)N[C@@H](C)C(=O)N[C@@H](CCC(N)=O)C(=O)N[C@@H](CC(=O)O)C(=O)N[C@@](C)(Cc1ccccc1)C(=O)N[C@H](C(=O)N[C@@H](CCC(N)=O)C(=O)NC(C)(C)C(=O)N[C@H](C(=O)N[C@H](C(=O)N[C@@H](CC(N)=O)C(=O)N[C@H](C(N)=O)[C@@H](C)O)[C@@H](C)CC)[C@@H](C)CC)C(C)C)C(=O)O [Peptide 135] (H-H[αMeS]QGS[αMeF]TSDVSKILDSK([PEG2-PEG2-γGlu-Myristoyl])AAQD[αMeF]VQ[Aib]IINT-NH2; N-terminus assumed)
